In publication PMC9158266, “Ethacrynic acid is an inhibitor of human factor XIIIa” (BMC Pharmacology & Toxicology, 2022) one finds IC50 data, which are given here for one compound.

This test has as its target T1, human factor XIIIa (FXIIIa) (Homo sapiens, UniProt P00488).
T1 construct: gene F13A1
T1 sequence (P00488 39-732): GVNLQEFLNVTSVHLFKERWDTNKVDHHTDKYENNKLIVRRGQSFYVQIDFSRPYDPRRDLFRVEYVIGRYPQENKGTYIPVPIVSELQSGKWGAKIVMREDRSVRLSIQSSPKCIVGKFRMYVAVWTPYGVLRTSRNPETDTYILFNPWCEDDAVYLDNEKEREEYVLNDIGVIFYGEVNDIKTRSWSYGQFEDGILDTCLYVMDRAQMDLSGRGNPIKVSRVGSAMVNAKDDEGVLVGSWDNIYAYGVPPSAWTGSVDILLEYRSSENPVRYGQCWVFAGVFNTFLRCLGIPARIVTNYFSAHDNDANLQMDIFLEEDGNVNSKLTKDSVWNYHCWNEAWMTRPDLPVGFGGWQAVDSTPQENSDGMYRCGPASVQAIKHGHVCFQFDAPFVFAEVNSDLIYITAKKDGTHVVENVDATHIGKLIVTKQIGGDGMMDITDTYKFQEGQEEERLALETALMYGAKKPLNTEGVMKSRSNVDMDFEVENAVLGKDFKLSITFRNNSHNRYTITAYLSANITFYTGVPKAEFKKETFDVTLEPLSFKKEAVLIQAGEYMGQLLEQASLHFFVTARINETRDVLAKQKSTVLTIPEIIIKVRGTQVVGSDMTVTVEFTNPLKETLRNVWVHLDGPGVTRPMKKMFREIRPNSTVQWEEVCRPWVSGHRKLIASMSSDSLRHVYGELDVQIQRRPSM
Put plainly: bisubstrate fluorescence trans-glutamination assay (dansylcadaverine / N,N-dimethylcasein). The test is classed as biochemical.

For orientation: IC50 means the point on the concentration scale where inhibition reaches its midpoint. Regarding `C=C(CC)C(=O)c1ccc(OCC(=O)O)c(Cl)c1Cl` [compound 1, Ethacrynic acid], the half-maximal inhibitory concentration (IC50) came out at 106 ± 32.5 µM.
